For experiment [1], the target named is T1, BChE (Equus caballus, UniProt P81908).
T1 construct: BChE (Lee Biosolutions, Product No. 130–10-1, from equine serum); purchased Lee Biosolutions 130–10-1; host or cells: equine serum
Briefly: Kinetics assay of BChE inhibition (Lineweaver-Burk plot). It counts as biochemical, equine. The settings on record: Lineweaver-Burk analysis with respect to butyrylthiocholine (BTC). The method, then: (§1) Kinetics assays of 4i inhibition with AChE and BChE were also carried out as previously described[18]^,[19]. Briefly, varying concentrations of 4i were incubated with AChE and BChE before initiating the enzymatic reactions by addition of 100 µL of a 1:1 (v/v) solution of ATC or BTC (0.4 mM, 0.5 mM, 1 mM, or 2 mM in phosphate buffer) and DTNB (1 mM in phosphate buffer) to all wells. […] Rate vs concentration was fitted to a Lineweaver-Burk plot using GraphPad Prism 9.1.1.

Experiment [2] concerns the target T2, AChE (Electrophorus electricus, UniProt O42275).
T2 construct: purchased Sigma-Aldrich C2888
Briefly: Kinetics assay of AChE inhibition (Lineweaver-Burk plot). In kind it is biochemical. The settings on record: Lineweaver-Burk analysis with respect to acetylthiocholine (ATC). The method, then:
as §1

The target in experiment [3] is T1, BChE. Briefly: biochemical. To be noted: for Selectivity: calculated as AChE IC50/BChE IC50. In kind it is biochemical. As for the experimental part: (§2) Inhibition of AChE (Sigma-Aldrich, Product No. C2888, from Electrophorus electricus) and BChE (Lee Biosolutions, Product No. 130–10-1, from equine serum) was carried out as previously described by our lab[18]^,[19]. Briefly, compounds to be tested were prepared in sodium phosphate (dibasic) buffer (0.1 M) containing 10% DMSO and then diluted with phosphate buffer across the wells of a 96-well plate to reach desired concentrations (50 µL total well volume). AChE (50 µL, 400 U/L, in phosphate buffer) or BChE (50 µL, 400 U/L, in phosphate buffer) was added to the appropriate wells. After incubation, the enzymatic reaction was initiated with 100 µL of a 1:1 (v/v) solution of acetylthiocholine (ATC, 2 mM in phosphate buffer) or butyrylthiocholine (BTC, 2 mM in phosphate buffer) and 5,5′-dithiobis-(2-nitrobenzoic acid) (DTNB, 1 mM in phosphate buffer). […] IC50 values were calculated using GraphPad Prism 9.1.1.
(§3) The synthesis of the target molecules 4a-j and 5a-j was carried out in straightforward fashion by substitution of isatin or indole with iodomethane or 1-bromoalkanes in the presence of K2CO3 and DMF or NaOH and DMSO (Scheme 1). […] A DEPT135 experiment was run to differentiate this signal (negative) from the solvent (positive) (see supplementary data), as we have employed previosuly. The synthesised compounds were then evaluated as AChEI and BChEI using the established Ellman method. Results are reported as IC50 values in Table 1.

Experiment [4] addresses T2, AChE. Put plainly: AChE inhibition assay (Ellman method). It counts as biochemical. As for the experimental part:
as §2, §3
A general note: In Ellman's method for cholinesterases, released thiocholine reacts with DTNB.

Experiment [5] has as its target T1, BChE. The settings on record: previously reported; cited from earlier work.
For experiment [6], the target named is BChE. The settings on record: previously reported by Hyatt et al.; cited from earlier work.
Experiment [7] has as its target AChE. The settings on record: previously reported by Hyatt et al.; cited from earlier work.
Experiment [8] addresses T2, AChE. To be noted: previously reported; cited from earlier work.
For experiment [9], the target named is T2, AChE. The settings on record: values previously determined; cited from earlier work.
In experiment [10] the target is T1, BChE. The settings on record: read-out: BChE IC50; values previously determined; cited from earlier work.
Where [11] appears, read: mean of three independent experiments ± SEM, > X = highest soluble concentration tested, read-out: BChE IC50.
Where [12] appears, read: mean of three independent experiments ± SEM, > X = highest soluble concentration tested, read-out: AChE IC50.

Here are results for 25 compounds from article PMC11721616, “Evaluation of N-alkyl isatins and indoles as acetylcholinesterase and butyrylcholinesterase inhibitors” (Journal of Enzyme Inhibition and Medicinal Chemistry, 2023).

Where “and” joins values, the source holds several entries; their conditions need not be identical. Identical values can stand only once. Like-named read-outs stand apart in the source and are kept apart here. Some results are limits rather than exact numbers.

T2 sequence (O42275 24-633): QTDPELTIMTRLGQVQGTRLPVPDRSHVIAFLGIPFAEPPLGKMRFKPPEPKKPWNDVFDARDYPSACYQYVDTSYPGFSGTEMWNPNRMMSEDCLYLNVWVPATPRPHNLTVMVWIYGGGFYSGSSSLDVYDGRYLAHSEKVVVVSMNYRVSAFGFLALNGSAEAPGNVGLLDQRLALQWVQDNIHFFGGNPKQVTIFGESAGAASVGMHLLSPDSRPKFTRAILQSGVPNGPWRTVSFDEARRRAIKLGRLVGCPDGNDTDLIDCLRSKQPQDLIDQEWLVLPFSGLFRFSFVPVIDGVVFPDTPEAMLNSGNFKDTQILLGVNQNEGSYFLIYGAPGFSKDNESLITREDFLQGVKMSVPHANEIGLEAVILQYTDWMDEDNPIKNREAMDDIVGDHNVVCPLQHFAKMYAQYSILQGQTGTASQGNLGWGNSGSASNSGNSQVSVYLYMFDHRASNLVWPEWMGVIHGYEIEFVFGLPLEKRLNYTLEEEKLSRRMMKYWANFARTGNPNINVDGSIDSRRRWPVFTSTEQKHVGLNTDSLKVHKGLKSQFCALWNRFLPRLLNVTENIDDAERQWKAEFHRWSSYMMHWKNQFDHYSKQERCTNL
T1 sequence (P81908 whole entry): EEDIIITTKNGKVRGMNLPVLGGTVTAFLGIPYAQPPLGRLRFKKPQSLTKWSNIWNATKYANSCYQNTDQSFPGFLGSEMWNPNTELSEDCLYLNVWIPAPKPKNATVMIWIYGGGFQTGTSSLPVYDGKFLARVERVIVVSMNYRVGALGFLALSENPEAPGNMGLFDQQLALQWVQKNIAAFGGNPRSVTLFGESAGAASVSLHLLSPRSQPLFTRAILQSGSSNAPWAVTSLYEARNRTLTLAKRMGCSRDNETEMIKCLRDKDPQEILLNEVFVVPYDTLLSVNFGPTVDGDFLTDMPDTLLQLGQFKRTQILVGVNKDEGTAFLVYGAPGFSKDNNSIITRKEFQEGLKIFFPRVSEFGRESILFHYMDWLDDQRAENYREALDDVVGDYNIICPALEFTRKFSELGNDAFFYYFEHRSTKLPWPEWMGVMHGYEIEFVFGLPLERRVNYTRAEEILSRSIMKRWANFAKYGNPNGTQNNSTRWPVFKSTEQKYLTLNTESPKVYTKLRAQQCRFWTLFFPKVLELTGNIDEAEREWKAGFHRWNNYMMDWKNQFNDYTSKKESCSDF

The term IC50 denotes the midpoint of a concentration-inhibition curve. As to `CCCCCCCCCN1C(=O)C(=O)c2ccccc21` [Compound 4i, 1-Nonylindoline-2,3-dione], the “mode of inhibition of BChE” value in experiment [1] was “mixed inhibition”. For the same compound, in experiment [2], the “mode of inhibition of AChE” value is reported as “non-competitive inhibition”. The Selectivity in experiment [3] is 22 and 21.8. For the same compound, the half-inhibitory concentration (IC50) in [3] (setting [11]) was 3.77 ± 0.45 µM; in [4] (setting [12]), 82.1 ± 8.1 µM.
In the case of `CCCCCCCN1C(=O)C(=O)c2ccccc21` [Compound 4g, 1-Heptylindoline-2,3-dione], the Selectivity in [3] was 3.3. The values for the IC50 in [3] (setting [11]) and in experiment [4] (setting [12]) were 20.7 ± 3.3 µM and 67.8 ± 7.8 µM, respectively.
For `CCCCCCCCn1ccc2ccccc21` [Compound 5h, 1-Octyl-1H-indole], the Selectivity in experiment [3] was under 0.8. Also, the IC50 in experiment [3] (setting [11]) was over 62.5 µM; in experiment [4] (setting [12]) it was 49.5 ± 1.8 µM.
The like results for `CCCCCCCCCCn1ccc2ccccc21` [Compound 5j, 1-Decyl-1H-indole] were, in that order, under 0.8, over 62.5 µM and 48.6 ± 1.4 µM.
As to `O=C1C(=O)N(CCCCCN2C(=O)C(=O)c3ccccc32)c2ccccc21` [Compound 1], the “mode of inhibition of BChE” value in [5] is listed as “mixed inhibition”.
Regarding `CCCn1ccc2ccccc21` [Compound 5c, 1-Propyl-1H-indole], in experiment [3], the Selectivity is listed as under 0.6. In addition, the IC50 in experiment [3] (setting [11]) is over 125 µM; in experiment [4] (setting [12]) it was 78.6 ± 2.3 µM.
For the compound `CCCCCCCn1ccc2ccccc21` [Compound 5g, 1-Heptyl-1H-indole], in experiment [3], the Selectivity is reported as under 0.6. The IC50 is over 62.5 µM in experiment [3] (setting [11]) and 35 ± 10.5 µM in experiment [4] (setting [12]).
As to `CCn1ccc2ccccc21` [Compound 5b, 1-Ethyl-1H-indole], in [3], the IC50 is over 125 µM and the Selectivity is under 0.8. For the same compound, the 50% inhibitory concentration (IC50) in [4] amounted to 101 ± 6 µM.
With `CCCCCCCCN1C(=O)C(=O)c2ccccc21` [Compound 4h, 1-Octylindoline-2,3-dione], the Selectivity in experiment [3] was over 7.0. In addition, the results for the half-maximal inhibitory concentration (IC50) in experiment [3] (setting [11]) and in experiment [4] (setting [12]) were 17.9 ± 1.8 µM and over 125 µM, respectively.
In general, Ki refers to a measure of affinity in units of concentration, obtained from inhibition or displacement. Take `CCCCCCCCCCCCN1C(=O)C(=O)c2ccccc21` [N-dodecyl isatin]: the Ki in experiment [6] and in [7] was over 100 µM in each case.
With `CCCCCn1ccc2ccccc21` [Compound 5e, 1-Pentyl-1H-indole], in experiment [3], the Selectivity is given as under 0.8. Moreover, the IC50 was over 125 µM in experiment [3] (setting [11]) and 95 ± 5.9 µM in experiment [4] (setting [12]).
In the case of `CCCCCCn1ccc2ccccc21` [Compound 5f, 1-Hexyl-1H-indole], in experiment [3], the Selectivity is under 0.6. Besides, the figures for the IC50 in [3] (setting [11]) and in experiment [4] (setting [12]) were over 125 µM and 76.2 ± 1.6 µM, respectively.
On to `CCCN1C(=O)C(=O)c2ccccc21` [Compound 4c, 1-Propylindoline-2,3-dione], for which the Selectivity in experiment [3] was 2.0. Besides, the IC50 in experiment [3] (setting [11]) is 257 ± 8 µM; in experiment [4] (setting [12]), 519 ± 11 µM.
In the case of `Cn1ccc2ccccc21` [Compound 5a, 1-Methyl-1H-indole], in experiment [3], the concentration for half-maximal inhibition (IC50) is over 125 µM and the Selectivity is recorded as under 0.7. For the same compound, in [4], 86.7 ± 4.5 µM corresponded to half-maximal inhibition (IC50).
For `C=C1SC(SCCCN2C(=O)C(=O)c3ccccc32)=NC1(C)C` [Compound 3], the “mode of inhibition of AChE” value in [8] was “non-competitive inhibition”. In addition, the IC50 in experiment [9] is 18.2 µM.
Regarding `CCCCCCCCCCCCCCCCN1C(=O)C(=O)c2ccccc21` [N-hexadecyl isatin], the Ki in experiment [6] and in experiment [7] was over 100 µM in each case.
On to `CCCCN1C(=O)C(=O)c2ccccc21` [Compound 4d, 1-Butylindoline-2,3-dione], for which the Selectivity in experiment [3] is 7.3. Further, the values for the half-maximal inhibitory concentration (IC50) in experiment [3] (setting [11]) and in [9] were 73.7 ± 1.3 µM and 540 ± 23 µM, respectively.
Consider `CCN1C(=O)C(=O)c2ccccc21` [Compound 4b, 1-Ethylindoline-2,3-dione], for which, in [3], the Selectivity is 1.5. Further, the half-inhibitory concentration (IC50) stood at 193 ± 8 µM in [3] (setting [11]) and 297 ± 35 µM in experiment [4] (setting [12]).
With `CN1C(=O)C(=O)c2ccccc21` [Compound 4a, 1-Methylindoline-2,3-dione], the Ki in experiment [6] and in [7] was over 100 µM throughout. The results for the IC50 in [3] and in experiment [4] were over 1000 µM and 647 ± 57 µM, respectively. Further, the Selectivity in experiment [3] is given as under 0.6.
With `CCCCCCCCCn1ccc2ccccc21` [Compound 5i, 1-Nonyl-1H-indole], the Selectivity in [3] is reported as under 0.7. In addition, the “loss of potency towards BChE compared to 4i” value in experiment [3] (inhibition assay, 5i vs 4i) was over 17 fold. Moreover, the results for the 50% inhibitory concentration (IC50) in [3] (setting [11]) and in [4] (setting [12]) were over 62.5 µM and 44.6 ± 1.7 µM, respectively.
With `CCCCCCCCCCN1C(=O)C(=O)c2ccccc21` [Compound 4j, 1-Decylindoline-2,3-dione], the Selectivity in experiment [3] is given as 12.1. For the same compound, the half-maximal inhibitory concentration (IC50) was 5.16 ± 0.66 µM in experiment [3] (setting [11]) and 62.2 ± 8.5 µM in [4] (setting [12]).
The matching figures for `CCCCCCN1C(=O)C(=O)c2ccccc21` [Compound 4f, 1-Hexylindoline-2,3-dione]: over 1.4, 90.8 ± 2.3 µM and over 125 µM.
With `CCCCn1ccc2ccccc21` [Compound 5d, 1-Butyl-1H-indole], the half-inhibitory concentration (IC50) in experiment [3] (setting [11]) and in [4] (setting [12]) was over 125 µM in each case.
In the case of `CCCCCN1C(=O)C(=O)c2ccccc21` [Compound 4e, 1-Pentylindoline-2,3-dione], in [3], the Selectivity is listed as 2.4. For the same compound, the values for the IC50 in [3] (setting [11]) and in experiment [4] (setting [12]) were 83.8 ± 3.4 µM and 197 ± 51 µM, respectively.
As to `O=C1Nc2ccccc2C1=O` [isatin, indoline-2,3-dione], the IC50 in [9] and in [10] was over 1000 µM in each case.
